Laboratory results published in patent US8273900B2, “Organic compounds” (Novartis AG, priority 2008, dated 2012).
Counter-ions that a name gives are not always drawn.

Target: T1, human recombinant CRF-1 receptor (Homo sapiens, UniProt P34998)
T1 construct: expressed in transfected cells; host or cells: CHO cells (G418-selected)
T1 sequence (P34998 24-415): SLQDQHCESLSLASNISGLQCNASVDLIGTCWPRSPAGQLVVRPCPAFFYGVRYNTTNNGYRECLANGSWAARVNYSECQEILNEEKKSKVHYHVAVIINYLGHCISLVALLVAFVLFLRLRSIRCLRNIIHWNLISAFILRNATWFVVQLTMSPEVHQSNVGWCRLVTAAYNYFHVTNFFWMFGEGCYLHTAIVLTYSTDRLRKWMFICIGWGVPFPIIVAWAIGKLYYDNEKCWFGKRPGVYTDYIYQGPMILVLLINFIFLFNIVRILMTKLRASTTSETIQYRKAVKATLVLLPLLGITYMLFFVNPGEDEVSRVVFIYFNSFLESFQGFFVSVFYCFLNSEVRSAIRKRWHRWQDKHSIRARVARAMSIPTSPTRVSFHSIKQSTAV
Test: CRF-1 receptor antagonism, HTRF cAMP assay in CHO cells in the presence of 1 nM CRF
Format: cell-based
Settings: CHO cells expressing human recombinant CRF-1; inhibition of the effect of 1 nM CRF on cAMP
Procedure: The CRF-1 or CRF-2α receptor antagonistic activity of the agents of the invention has been determined in vitro in the following assay:
Chinese hamster ovary (CHO) cells expressing either the human recombinant CRF-1 or CRF-2a receptors (Chen et al., Proc Natl Acad Sci USA 90, 8967-8971, 1993; Liaw et al., Endocrinology 137, 72-77, 1996) are propagated in Dulbecco's modified Eagle medium supplemented with 10% foetal calf serum, non-essential amino acids, 100 U/ml penicillin, 100 mg/l streptomycin and 1 g/l geneticin (G418). For cyclic AMP determinations the Homogeneous Time-Resolved Fluoresce (HTRF) cAMP dynamic 2 kit (Cisbio International, France) was used as per manufacturers' instructions. CHO cells, previously cryopreserved, were thawed, centrifuged for 7 mins at 1200 rpm and resuspended in serum free media, then pipetted out onto clear bottomed black tissue culture treated 384-well microtitre plates (Corning Inc, US) at 2,000 cells per well. Compounds of the invention, prepared in DMSO, and subsequently diluted 50 fold in assay buffer (1× Hanks balanced salt solution, 0.2% (w/v) bovine serum albumin, 1.7 mM isobutylmethylxanthine and 10 mM Hepes, pH 7.4) are then added onto the cell containing plate where a further 2 fold dilution is performed and incubated for 15 min. Following incubation, buffer containing a 5 times final concentration of agonist is added to the plate and incubated for 30 min. Finally, d2 dye labelled cAMP and cryptate labeled anti-cAMP antibody, both made in lysis buffer, are added to the plate followed by a settling period of 1 hour. During the settling period cAMP produced by the cells competes with the d2 labelled cAMP for the anti-cAMP cryptate. The plate is read on the Pherastar (BMG, Germany). Increasing levels of endogenous cAMP produced by cells can be followed by a decrease of fluorescent signal and vice versa. Values represented by a change in arbitrary fluorescence units are converted into cAMP concentrations by use of a standard curve the reagents for which are supplied with the kit. Antagonist dose response curves (1 nM-30 μM) are constructed in the presence of 1 nM CRF. IC50 values of antagonists are calculated by fitting the percent inhibition of the effect of CRF by increasing concentrations of the antagonists. The fit is performed using the nonlinear logistic function of the Activitybase software package v 5.4.5.27 (IDBS, UK).

SMILES: C[C@@H]1C[C@@H](NC(=O)c2cc(C(F)(F)F)ccc2Cl)CC[C@@H]1CNc1cc(-c2ccc(F)cc2)[nH]n1 (racemic) [Example 1.35a, (+/−)-2-Chloro-N-((1S,3R,4S)-4-{[5-(4-fluoro-phenyl)-1H-pyrazol-3-ylamino]-methyl}-3-methyl-cyclohexyl)-5-trifluoromethyl-benzamide]
- IC50: 199 nM

SMILES: Cc1cccnc1NC[C@H]1CC[C@H](NC(=O)c2cc(C(F)(F)F)ccc2Cl)CC1 [Example 1, Trans-2-Chloro-N-{4-[(3-methyl-pyridin-2-ylamino)-methyl]-cyclohexyl}-5-trifluoromethyl-benzamide]
- IC50: 38 nM

SMILES: Cc1ncccc1NC[C@H]1CC[C@H](NC(=O)c2cc(C(F)(F)F)ccc2Cl)CC1 [Example 1.13, Trans-2-Chloro-N-{4-[(2-methyl-pyridin-3-ylamino)-methyl]-cyclohexyl}-5-trifluoromethyl-benzamide]
- IC50: 19 nM

SMILES: Cc1nc(NC[C@H]2CC[C@H](NC(=O)c3cc(Cl)cnc3Cl)CC2)sc1C [Example 1.18, Trans-2,5-Dichloro-N-{4-[(4,5-dimethyl-thiazol-2-ylamino)-methyl]-cyclohexyl}-nicotinamide]
- IC50: 31 nM

SMILES: O=C(O)c1ccc(NC[C@H]2CC[C@H](NC(=O)c3cc(C(F)(F)F)ccc3Cl)CC2)nc1 [Example 1.33, Trans-6-{[4-(2-Chloro-5-trifluoromethyl-benzoylamino)-cyclohexylmethyl]-amino}-nicotinic acid]
- IC50: 6420 nM

SMILES: CN(C)Cc1ccc(NC[C@H]2CC[C@H](NC(=O)c3cc(C(F)(F)F)ccc3Cl)CC2)nc1 [Example 1.34, Trans-2-Chloro-N-{4-[(5-dimethylaminomethyl-pyridin-2-ylamino)-methyl]-cyclohexyl}-5-trifluoromethyl-benzamide hydrochloride]
- IC50: 1240 nM

SMILES: Cc1cnc(NC[C@H]2CC[C@H](NC(=O)c3cc(C(F)(F)F)ccc3Cl)CC2)s1 [Example 2.5, Trans-2-Chloro-N-{4-[(5-methyl-thiazol-2-ylamino)-methyl]-cyclohexyl}-5-trifluoromethyl-benzamide]
- IC50: 36 nM

SMILES: Cc1cc(C)nc(NC[C@H]2CC[C@H](NC(=O)c3cc(C(F)(F)F)ccc3Cl)CC2)c1 [Example 2.6, Trans-2-Chloro-N-{4-[(4,6-dimethyl-pyridin-2-ylamino)-methyl]-cyclohexyl}-5-trifluoromethyl-benzamide]
- IC50: 215 nM

SMILES: Cc1ccc(NC[C@H]2CC[C@H](NC(=O)c3cc(C(F)(F)F)ccc3Cl)CC2)nc1 [Example 2.8, Trans-2-Chloro-N-{4-[(5-methyl-pyridin-2-ylamino)-methyl]-cyclohexyl}-5-trifluoromethyl-benzamide]
- IC50: 66 nM

SMILES: Cc1cccc(NC[C@H]2CC[C@H](NC(=O)c3cc(C(F)(F)F)ccc3Cl)CC2)n1 [Example 2.9, Trans-2-Chloro-N-{4-[(6-methyl-pyridin-2-ylamino)-methyl]-cyclohexyl}-5-trifluoromethyl-benzamide]
- IC50: 39 nM

SMILES: O=C(N[C@H]1CC[C@H](CNc2ccccc2Cl)CC1)c1cc(C(F)(F)F)ccc1Cl [Example 2.26, Trans-2-Chloro-N-{4-[(2-chloro-phenylamino)-methyl]-cyclohexyl}-5-trifluoromethyl-benzamide]
- IC50: 63 nM

SMILES: O=C(N[C@H]1CC[C@H](CNCc2cc(-c3ccccc3)on2)CC1)c1cc(C(F)(F)F)ccc1Cl [Example 2.35, Trans-2-Chloro-N-(4-{[(5-phenyl-isoxazol-3-ylmethyl)-amino]-methyl}-cyclohexyl)-5-trifluoromethyl-benzamide]
- IC50: 346 nM

SMILES: Cc1nc(NC[C@H]2CC[C@H](NC(=O)c3cc(C(F)(F)F)ccc3Cl)CC2)sc1C [Example 3, Trans-2-chloro-N-{4-[(4,5-dimethyl-thiazol-2-ylamino)-methyl]-cyclohexyl}-5-trifluoromethyl-benzamide]
- IC50: 60 nM

SMILES: O=C(N[C@H]1CC[C@H](CNc2cc(-c3ccc(F)cc3)n[nH]2)CC1)c1cc(C(F)(F)F)ccc1Cl [Example 4.11, Trans-2-Chloro-N-(4-{[5-(4-fluoro-phenyl)-2H-pyrazol-3-ylamino]-methyl}-cyclohexyl)-5-trifluoromethyl-benzamide]
- IC50: 61 nM

SMILES: CCCc1cc(NC[C@H]2CC[C@H](NC(=O)c3cc(C(F)(F)F)ccc3Cl)CC2)n[nH]1 [Example 4.15, Trans-2-Chloro-N-{4-[(5-propyl-1H-pyrazol-3-ylamino)-methyl]-cyclohexyl}-5-trifluoromethyl-benzamide]
- IC50: 61 nM

SMILES: CC(C)c1cc(NC[C@H]2CC[C@H](NC(=O)c3cc(C(F)(F)F)ccc3Cl)CC2)n[nH]1 [Example 4.16, Trans-2-Chloro-N-{4-[(5-isopropyl-1H-pyrazol-3-ylamino)-methyl]-cyclohexyl}-5-trifluoromethyl-benzamide]
- IC50: 63 nM

SMILES: O=C(N[C@H]1CC[C@H](CNc2cccnc2)CC1)c1cc(C(F)(F)F)ccc1Cl [Example 4.21, Trans-2-Chloro-N-[4-(pyridin-3-ylaminomethyl)-cyclohexyl]-5-trifluoromethyl-benzamide]
- IC50: 76 nM

SMILES: O=C(N[C@H]1CC[C@H](CNc2ccccc2)CC1)c1cc(C(F)(F)F)ccc1Cl [Example 4.33, Trans-2-Chloro-N-(4-phenylaminomethyl-cyclohexyl)-5-trifluoromethyl-benzamide]
- IC50: 50 nM

SMILES: Cc1ncc(Cl)cc1C(=O)N[C@H]1CC[C@H](CNc2nc(C)c(C)s2)CC1 [Example 5.14, Trans-5-Chloro-N-{4-[(4,5-dimethyl-thiazol-2-ylamino)-methyl]-cyclohexyl}-2-methyl-nicotinamide]
- IC50: 66 nM

SMILES: O=C(N[C@H]1CC[C@H](Cn2ccc(N3CCNC3=O)n2)CC1)c1cc(C(F)(F)F)ccc1Cl [Example 6, Trans-2-chloro-N-(4-((3-(2-oxoimidazolidin-1-yl)-1H-pyrazol-1-yl)methyl)cyclohexyl)-5-(trifluoromethyl)benzamide]
- IC50: 90 nM

SMILES: Cc1cc(C)n(C[C@H]2CC[C@H](NC(=O)c3cc(C(F)(F)F)ccc3Cl)CC2)n1 [Example 7, Trans-2-chloro-N-[4-(3,5-dimethyl-pyrazol-1-ylmethyl)-cyclohexyl]-5-trifluoromethyl-benzamide]
- IC50: 22 nM

SMILES: O=C(N[C@H]1CC[C@H](CNc2cc(C3CC3)n[nH]2)CC1)c1cc(C(F)(F)F)ccc1Cl [Example 8, Trans-2-Chloro-N-{4-[(5-cyclopropyl-2H-pyrazol-3-ylamino)-methyl]-cyclohexyl}-5-trifluoromethyl-benzamide]
- IC50: 47 nM

SMILES: O=C(N[C@H]1CC[C@H](CNc2cccc(F)c2)CC1)c1cc(C(F)(F)F)ccc1Cl [Example 9, Trans-2-Chloro-N-{4-[(3-fluoro-phenylamino)-methyl]-cyclohexyl}-5-trifluoromethyl-benzamide]
- IC50: 50 nM

SMILES: Cc1cncc(NC[C@H]2CC[C@H](NC(=O)c3cc(C(F)(F)F)ccc3Cl)CC2)c1 [Example 10, Trans-2-chloro-N-(4-((5-methylpyridin-3-ylamino)methyl)-cyclohexyl)-5-(trifluoromethyl)benzamide]
- IC50: 41 nM

SMILES: CN(Cc1cc(-c2ccccc2)n[nH]1)C[C@H]1CC[C@H](NC(=O)c2cc(Cl)ccc2Cl)CC1 [Example 11, Trans-2,5-Dichloro-N-(4-{[methyl-(5-phenyl-2H-pyrazol-3-ylmethyl)amino]-methyl}-cyclohexyl)-benzamide]
- IC50: 174 nM

SMILES: O=C(N[C@H]1CC[C@H](CNc2ccccc2)CC1)c1cccc(Cl)c1 [Example 12, Trans-3-Chloro-N-(4-phenylaminomethyl-cyclohexyl)-benzamide]
- IC50: 137 nM

SMILES: O=C(N[C@H]1CC[C@H](CNc2cccc3ncccc23)CC1)c1cccc(C(F)(F)F)c1 [Example 13, Trans-N-[4-(Quinolin-5-ylaminomethyl)-cyclohexyl]-3-trifluoromethyl-benzamide]
- IC50: 70 nM

SMILES: O=C(N[C@H]1CC[C@@H](CNc2cc(-c3ccc(F)cc3)n[nH]2)CC1)c1cc(C(F)(F)F)ccc1Cl [Example 14, Cis-2-Chloro-N-(4-{[5-(4-fluoro-phenyl)-2H-pyrazol-3-ylamino]-methyl}-cyclohexyl)-5-trifluoromethyl-benzamide]
- IC50: 3230 nM
